The text below walks through data of ChEMBL document CHEMBL5465560, “Selectivity Literature for EUbOPEN Chemogenomic Library” (2024).

Test [1] addresses T1, Protein kinase C iota type (Homo sapiens) (UniProt P41743).
T1 sequence (whole entry): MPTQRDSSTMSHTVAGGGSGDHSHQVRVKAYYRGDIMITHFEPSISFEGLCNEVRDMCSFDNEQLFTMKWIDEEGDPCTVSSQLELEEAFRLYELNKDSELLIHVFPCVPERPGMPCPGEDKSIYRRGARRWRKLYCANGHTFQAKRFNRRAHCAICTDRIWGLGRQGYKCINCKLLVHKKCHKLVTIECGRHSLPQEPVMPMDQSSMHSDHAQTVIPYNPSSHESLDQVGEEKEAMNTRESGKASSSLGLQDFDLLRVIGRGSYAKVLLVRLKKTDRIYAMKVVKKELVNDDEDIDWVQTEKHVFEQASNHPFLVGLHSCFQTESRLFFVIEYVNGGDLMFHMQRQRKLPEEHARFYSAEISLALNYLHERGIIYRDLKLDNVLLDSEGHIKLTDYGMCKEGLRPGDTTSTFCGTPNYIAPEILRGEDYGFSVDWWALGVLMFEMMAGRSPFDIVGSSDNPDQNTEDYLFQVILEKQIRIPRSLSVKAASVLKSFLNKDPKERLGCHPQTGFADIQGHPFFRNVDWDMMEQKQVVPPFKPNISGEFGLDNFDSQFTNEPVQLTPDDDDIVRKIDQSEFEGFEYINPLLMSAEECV
Put plainly: Selectivity interaction (SelectScreen profiling (Invitrogen)) EUB0000607a PRKCI. Particulars: at 2 µM.

Test [2] addresses T2, Serine/threonine-protein kinase 3 (Homo sapiens) (UniProt Q13188).
T2 sequence (whole entry): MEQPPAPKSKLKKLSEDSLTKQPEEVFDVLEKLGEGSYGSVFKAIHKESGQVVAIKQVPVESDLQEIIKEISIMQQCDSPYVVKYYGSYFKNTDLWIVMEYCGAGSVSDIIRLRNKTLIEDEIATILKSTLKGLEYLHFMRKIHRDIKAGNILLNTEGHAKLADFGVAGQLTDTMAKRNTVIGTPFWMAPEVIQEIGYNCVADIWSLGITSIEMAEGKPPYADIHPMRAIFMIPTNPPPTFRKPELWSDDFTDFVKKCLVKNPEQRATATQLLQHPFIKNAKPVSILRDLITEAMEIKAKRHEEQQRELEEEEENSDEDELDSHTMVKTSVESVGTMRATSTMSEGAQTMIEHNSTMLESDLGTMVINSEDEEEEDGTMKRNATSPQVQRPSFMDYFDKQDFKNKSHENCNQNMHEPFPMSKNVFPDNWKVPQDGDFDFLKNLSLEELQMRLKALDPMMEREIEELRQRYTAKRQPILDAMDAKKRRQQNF
Put plainly: Selectivity interaction (SelectScreen profiling (Invitrogen)) EUB0000607a STK3. Particulars: at 2 µM.

In test [3] the target is LIM domain kinase 1 (Homo sapiens) (UniProt P53667). Put plainly: Selectivity interaction (Kinase panel (Invitrogen)) EUB0000639a LIMK1. As to conditions: at 200 nM.
The target of test [4] is T3, Mitogen-activated protein kinase kinase kinase 5 (Homo sapiens) (UniProt Q99683).
T3 sequence (whole entry): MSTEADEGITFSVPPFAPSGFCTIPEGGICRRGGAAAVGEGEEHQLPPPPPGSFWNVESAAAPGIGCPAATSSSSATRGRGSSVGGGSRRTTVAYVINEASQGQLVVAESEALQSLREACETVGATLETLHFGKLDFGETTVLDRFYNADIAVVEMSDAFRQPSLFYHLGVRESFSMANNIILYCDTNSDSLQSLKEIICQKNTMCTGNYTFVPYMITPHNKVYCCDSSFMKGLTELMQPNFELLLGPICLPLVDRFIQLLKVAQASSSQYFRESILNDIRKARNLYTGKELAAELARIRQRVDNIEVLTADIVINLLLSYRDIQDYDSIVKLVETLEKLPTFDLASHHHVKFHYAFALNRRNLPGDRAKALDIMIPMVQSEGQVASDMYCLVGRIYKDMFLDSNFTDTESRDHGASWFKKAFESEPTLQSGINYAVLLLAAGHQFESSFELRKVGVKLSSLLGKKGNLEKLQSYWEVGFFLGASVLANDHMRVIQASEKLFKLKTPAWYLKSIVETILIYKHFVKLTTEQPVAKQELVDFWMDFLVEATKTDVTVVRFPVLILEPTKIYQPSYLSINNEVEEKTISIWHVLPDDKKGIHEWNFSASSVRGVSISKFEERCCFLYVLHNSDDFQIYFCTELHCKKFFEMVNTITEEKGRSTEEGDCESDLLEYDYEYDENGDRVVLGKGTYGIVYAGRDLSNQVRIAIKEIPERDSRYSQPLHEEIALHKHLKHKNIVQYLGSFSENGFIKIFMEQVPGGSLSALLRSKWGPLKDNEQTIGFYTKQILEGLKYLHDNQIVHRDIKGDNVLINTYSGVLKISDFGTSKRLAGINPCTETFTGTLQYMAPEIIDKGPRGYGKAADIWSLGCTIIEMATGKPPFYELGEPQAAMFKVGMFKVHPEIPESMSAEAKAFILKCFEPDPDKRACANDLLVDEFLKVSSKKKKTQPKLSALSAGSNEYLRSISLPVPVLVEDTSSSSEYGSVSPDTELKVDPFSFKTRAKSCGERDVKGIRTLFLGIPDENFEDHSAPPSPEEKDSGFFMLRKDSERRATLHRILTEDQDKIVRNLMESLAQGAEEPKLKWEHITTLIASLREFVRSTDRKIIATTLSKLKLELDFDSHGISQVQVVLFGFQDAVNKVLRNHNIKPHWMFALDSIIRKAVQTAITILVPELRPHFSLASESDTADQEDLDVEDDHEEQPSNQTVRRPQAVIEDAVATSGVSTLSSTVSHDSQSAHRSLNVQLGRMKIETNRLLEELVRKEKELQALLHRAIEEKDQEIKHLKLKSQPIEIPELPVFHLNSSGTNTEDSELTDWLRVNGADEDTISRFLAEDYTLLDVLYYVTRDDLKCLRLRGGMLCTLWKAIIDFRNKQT
Briefly: Selectivity interaction (ActivX KiNativ screen (kinase selectivity in THP-1 cell lysates)) EUB0000639a MAP3K5. Type of test: subcellular. As to conditions: lysate, at 0.2 µM.

The target of test [5] is Tyrosine-protein kinase ABL2 (Homo sapiens, UniProt P42684). Put plainly: Selectivity interaction (Millipore kinase profiler) EUB0000124b ABL2. As to conditions: at 10 µM.
Tyrosine-protein kinase ABL2, sequence (P42684 whole entry): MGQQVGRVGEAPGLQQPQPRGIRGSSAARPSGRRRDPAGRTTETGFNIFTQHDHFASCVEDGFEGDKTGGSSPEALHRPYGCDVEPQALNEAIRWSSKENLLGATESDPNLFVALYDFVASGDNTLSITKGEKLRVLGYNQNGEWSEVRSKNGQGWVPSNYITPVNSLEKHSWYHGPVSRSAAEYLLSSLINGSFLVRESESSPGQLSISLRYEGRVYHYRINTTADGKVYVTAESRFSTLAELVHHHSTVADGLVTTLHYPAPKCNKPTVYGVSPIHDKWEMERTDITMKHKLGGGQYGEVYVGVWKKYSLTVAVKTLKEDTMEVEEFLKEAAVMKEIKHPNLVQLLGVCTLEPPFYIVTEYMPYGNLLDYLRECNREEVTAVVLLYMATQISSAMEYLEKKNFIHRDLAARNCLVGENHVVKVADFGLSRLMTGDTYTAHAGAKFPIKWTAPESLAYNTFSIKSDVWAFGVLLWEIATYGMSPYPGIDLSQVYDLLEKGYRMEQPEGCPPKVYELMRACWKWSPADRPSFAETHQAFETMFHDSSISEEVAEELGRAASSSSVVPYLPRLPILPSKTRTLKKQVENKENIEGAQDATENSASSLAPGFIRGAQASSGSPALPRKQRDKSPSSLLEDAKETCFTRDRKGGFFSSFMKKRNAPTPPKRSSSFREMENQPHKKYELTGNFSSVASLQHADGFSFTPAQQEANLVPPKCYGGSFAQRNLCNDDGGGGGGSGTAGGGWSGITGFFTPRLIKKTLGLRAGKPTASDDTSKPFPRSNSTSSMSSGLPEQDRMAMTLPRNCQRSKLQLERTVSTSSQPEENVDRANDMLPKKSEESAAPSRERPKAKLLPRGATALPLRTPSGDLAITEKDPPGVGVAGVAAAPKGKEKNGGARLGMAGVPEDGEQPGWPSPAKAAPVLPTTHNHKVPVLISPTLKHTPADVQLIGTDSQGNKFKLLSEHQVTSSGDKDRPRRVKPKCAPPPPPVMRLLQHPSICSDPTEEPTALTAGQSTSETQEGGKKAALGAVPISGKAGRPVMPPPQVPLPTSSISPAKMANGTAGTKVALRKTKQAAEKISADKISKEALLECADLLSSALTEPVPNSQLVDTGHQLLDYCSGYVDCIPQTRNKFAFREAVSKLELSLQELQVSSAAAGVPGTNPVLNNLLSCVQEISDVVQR

LIM domain kinase 1 (Homo sapiens), sequence (P53667 whole entry, looked up, the tested form may be a part): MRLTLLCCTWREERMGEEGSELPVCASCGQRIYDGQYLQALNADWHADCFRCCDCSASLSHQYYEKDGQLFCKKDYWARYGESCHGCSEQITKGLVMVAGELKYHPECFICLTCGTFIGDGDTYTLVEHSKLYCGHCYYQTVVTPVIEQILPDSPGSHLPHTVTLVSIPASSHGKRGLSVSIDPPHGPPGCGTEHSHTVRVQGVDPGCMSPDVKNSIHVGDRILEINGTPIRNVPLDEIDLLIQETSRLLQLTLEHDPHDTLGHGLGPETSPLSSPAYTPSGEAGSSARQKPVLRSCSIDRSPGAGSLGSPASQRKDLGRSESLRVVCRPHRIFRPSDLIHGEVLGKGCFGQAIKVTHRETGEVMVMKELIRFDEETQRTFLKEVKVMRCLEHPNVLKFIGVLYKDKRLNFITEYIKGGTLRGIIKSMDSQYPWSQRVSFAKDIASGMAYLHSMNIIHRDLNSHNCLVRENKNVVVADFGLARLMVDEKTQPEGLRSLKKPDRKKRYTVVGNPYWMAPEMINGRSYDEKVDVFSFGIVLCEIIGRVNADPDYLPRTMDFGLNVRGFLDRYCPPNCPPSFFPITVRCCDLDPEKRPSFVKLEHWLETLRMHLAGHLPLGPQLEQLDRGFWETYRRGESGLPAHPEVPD

Consider `CNC(=O)Nc1ccc(-c2nc(N3CC4CCC(C3)O4)c3cnn(C4CCC5(CC4)OCCO5)c3n2)cc1`, for which the % of inhibition in test [1] is 6%; in test [2], 0%.
Consider `CC[C@@H]1[C@H](F)C(=O)N[C@@H]1COc1nccc2cc(C(N)=O)c(OC)cc12` [ZIMLOVISERTIB], for which the % of inhibition was 13.2% in test [3] and -11.2% in test [4].
Turning to `CC(=O)Nc1cccc(-n2c(=O)n(C3CC3)c(=O)c3c(Nc4ccc(I)cc4F)n(C)c(=O)c(C)c32)c1`, the % of control in test [5] stood at 111%.
